According to PubChem BioAssay (NCI):
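Test compounds were applied to cells in 96-well plates for 48 hours at 5 doses. At the GI50, growth is halved. TGI is the concentration that stops growth completely.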

Assays:
Experiment in all cases: growth of human tumour cells (NCI), 48 h
ACHN renal = tested on: ACHN renal
HOP-62 NSCLC = tested on: HOP-62 NSCLC
K-562 leukemia = tested on: K-562 leukemia
MCF7 breast = tested on: MCF7 breast
SF-295 CNS = tested on: SF-295 CNS
SNB-19 CNS = tested on: SNB-19 CNS
T-47D breast = tested on: T-47D breast

SMILES | GI50 (ACHN renal) | TGI (ACHN renal) | GI50 (HOP-62 NSCLC) | TGI (HOP-62 NSCLC) | GI50 (K-562 leukemia) | TGI (K-562 leukemia) | GI50 (MCF7 breast) | TGI (MCF7 breast) | GI50 (SF-295 CNS) | TGI (SF-295 CNS) | GI50 (SNB-19 CNS) | TGI (SNB-19 CNS) | GI50 (T-47D breast) | TGI (T-47D breast)
c1ccc(Oc2cnc3ccccc3n2)cc1 | > 100000 nM | > 100 µM | > 100 µM | > 100 µM | > 100000 nM | > 100 µM | > 100000 nM | > 100 µM | 36400 nM | > 100 µM | > 100 µM | > 100 µM | 75.5 µM | > 100 µM
OC(c1cc2c(Cl)cc(Cl)cc2c2cc(C(F)(F)F)ccc12)C1CCCCN1 (configuration not stated) | 1820 nM | 3.65 µM | 1.72 µM | 3.47 µM | – | – | – | – | – | – | – | – | – | –
COc1ccc(-n2cc(-c3ccc(F)cc3)[nH]c2=O)cc1OC | > 100000 nM | > 100 µM | 54.7 µM | > 100 µM | 7500 nM | > 100 µM | > 100000 nM | > 100 µM | > 100000 nM | > 100 µM | > 100 µM | > 100 µM | > 100 µM | > 100 µM
CCCCCCCCCCCC(=O)[O][Sn]([CH2]CCC)([CH2]CCC)[CH2]CCC | 59.6 nM | 0.157 µM | 0.0795 µM | 0.232 µM | 36.4 nM | 0.286 µM | 37 nM | 0.161 µM | 67.9 nM | 0.177 µM | 0.0859 µM | 0.228 µM | – | –
O=c1c(Br)ccc(Br)cc1Br | 1260 nM | 2.53 µM | 2.38 µM | 5.58 µM | 527 nM | 3.64 µM | 3810 nM | 77.6 µM | 8010 nM | 22.4 µM | 11.7 µM | 25.2 µM | 0.744 µM | 3.71 µM
COC(=O)/C=C/c1cc(OC)c2c(c1)[C@@H](C(=O)OC)[C@H](c1ccc(OC)c(OC)c1)O2 | 4450 nM | > 100 µM | 4.33 µM | > 100 µM | – | – | 388 nM | 14.2 µM | 715 nM | > 100 µM | 8.64 µM | > 100 µM | 4.99 µM | > 100 µM
CCCCCCOc1ccc(/C=N/Nc2cc(C)nc3ccc(Br)cc23)cc1 | 1740 nM | 3.11 µM | 1.47 µM | 2.94 µM | 1070 nM | 2.96 µM | 1640 nM | 3.35 µM | 1720 nM | 3.2 µM | 1.83 µM | 3.43 µM | 1.82 µM | 3.72 µM
CN1CCN(C(=S)N(C(=O)c2ccc(Cl)cc2)C2CCCCC2)CC1 | – | > 100 µM | – | – | – | > 100 µM | – | > 100 µM | – | > 100 µM | – | > 100 µM | – | > 100 µM
O=c1c(-c2nc3ccccc3[nH]2)cc2ccccc2n1Cc1cn(Cc2ccc(F)cc2)nn1 | 492 nM | > 40.5 µM | 0.222 µM | 9.51 µM | 60.9 nM | > 100 µM | 32.9 nM | > 55.1 µM | 253 nM | 11 µM | 0.305 µM | 25.2 µM | 0.206 µM | > 100 µM
COc1cc(-c2cc(C(=O)N3CCN(C(=O)c4ccccc4NCc4cccs4)CC3)nc3cc(-c4ccccc4)nn23)cc(OC)c1OC | 4930 nM | > 100 µM | 11 µM | 86.7 µM | 1380 nM | 17.4 µM | 2560 nM | > 100 µM | 3780 nM | > 100 µM | 8.99 µM | > 100 µM | 8.38 µM | > 100 µM
COc1ccc2nc3c(cc2c1)C(=O)CC(C(F)(F)F)C3 (configuration not stated) | 1020 nM | > 100 µM | 3.36 µM | > 100 µM | 406 nM | > 100 µM | 3330 nM | > 100 µM | 1410 nM | 23.3 µM | 3.61 µM | > 100 µM | 3.7 µM | > 100 µM
CC(=O)SC(C[N+](=O)[O-])c1ccccc1 (configuration not stated) | – | 8.94 µM | – | 33 µM | – | 12.8 µM | – | 4.35 µM | – | 15.9 µM | – | 30.9 µM | – | > 71.3 µM
COc1cc(/C=C/C(=O)c2ccc(SC)cc2)cc(OC)c1OC | 6980 nM | 19.5 µM | 14.7 µM | 29.5 µM | 3200 nM | 16.4 µM | 5220 nM | 24.1 µM | – | – | 12.6 µM | 26.4 µM | 9.68 µM | 62.9 µM
COc1cccc(-c2nn(C)c3sc(C(=O)NCCN4CCN(c5ccccc5F)CC4)cc23)c1 | 19200 nM | > 100 µM | 25.8 µM | > 100 µM | 3780 nM | > 100 µM | 6540 nM | > 100 µM | 4850 nM | 29 µM | 21 µM | > 100 µM | 4.32 µM | > 100 µM
C/C(=N\O)c1ccc(Nc2cc(-c3ccccc3)nc3c(O)cccc23)cc1 | 10700 nM | 28.2 µM | 12.9 µM | 26.6 µM | 15200 nM | 97.6 µM | – | – | 5240 nM | 18.3 µM | – | – | 5.44 µM | 32.9 µM
O=C1/C=C/[C@@H](O)[C@@H]2C[C@@H](O)C[C@H]2/C=C/CCCCO1 | 430 nM | > 23.6 µM | 2.23 µM | > 100 µM | 2020 nM | > 100 µM | 327 nM | 1.88 µM | 774 nM | > 100 µM | 0.749 µM | > 100 µM | 1.14 µM | 4.43 µM
Clc1ccc2c(NCCCNCc3ccc4c(c3)OCO4)ccnc2c1 | 3450 nM | 12 µM | 11.5 µM | 24.2 µM | 2190 nM | 7.63 µM | 2890 nM | 13 µM | 2340 nM | 7.11 µM | 4.79 µM | 16.9 µM | 2.11 µM | 5.26 µM
COc1ccc(S(=O)(=O)Nc2c(/C=C\c3cc(OC)c(OC)c(OC)c3)ccc(OC)c2O)cc1OC | 526 nM | > 100 µM | 0.61 µM | > 100 µM | 92.7 nM | > 100 µM | 40.5 nM | > 100 µM | 242 nM | > 100 µM | 0.506 µM | > 100 µM | > 86.9 µM | > 100 µM
